Source: the NIST ThermoML archive (doi:10.1016/j.tca.2016.01.016)
Several values for one entry are separate records, joined by “and”; a condition that tells them apart may be missing. Equal entries are not always repeated.

Experiment: molar heat capacity at constant pressure
Details: 101.33 kPa, Crystal, Small sample (50 mg) DSC

O=P([O-])([O-])[O-].[Dy+3] [dysprosium(III) phosphate]
Details	molar heat capacity at constant pressure
348.15 K	117.5 J/K/mol and 118.3 J/K/mol
353.15 K	119.1 J/K/mol and 119.4 J/K/mol
358.15 K	120.4 J/K/mol and 120.4 J/K/mol
363.15 K	121.5 J/K/mol and 121.3 J/K/mol
368.15 K	122.5 J/K/mol and 122.3 J/K/mol
373.15 K	123.3 J/K/mol and 123.2 J/K/mol
378.15 K	124.1 J/K/mol and 124.1 J/K/mol
383.15 K	124.9 J/K/mol and 124.9 J/K/mol
388.15 K	125.7 J/K/mol and 125.7 J/K/mol
393.15 K	126.4 J/K/mol and 126.5 J/K/mol
398.15 K	127.3 J/K/mol and 127.3 J/K/mol
403.15 K	128.1 J/K/mol and 128 J/K/mol
408.15 K	128.9 J/K/mol and 128.7 J/K/mol
413.15 K	129.6 J/K/mol and 129.4 J/K/mol
418.15 K	130.4 J/K/mol and 130.1 J/K/mol
423.15 K	131 J/K/mol and 130.8 J/K/mol
428.15 K	131.7 J/K/mol and 131.4 J/K/mol
433.15 K	132.3 J/K/mol and 132 J/K/mol
438.15 K	132.8 J/K/mol and 132.6 J/K/mol
443.15 K	133.4 J/K/mol and 133.2 J/K/mol
448.15 K	133.9 J/K/mol and 133.8 J/K/mol
453.15 K	134.5 J/K/mol and 134.3 J/K/mol
458.15 K	135 J/K/mol and 134.9 J/K/mol
463.15 K	135.5 J/K/mol and 135.4 J/K/mol
468.15 K	136.1 J/K/mol and 135.9 J/K/mol
473.15 K	136.6 J/K/mol and 136.4 J/K/mol
478.15 K	137 J/K/mol and 136.9 J/K/mol
483.15 K	137.4 J/K/mol and 137.4 J/K/mol
488.15 K	137.9 J/K/mol and 137.8 J/K/mol
493.15 K	138.3 J/K/mol and 138.3 J/K/mol
498.15 K	138.7 J/K/mol and 138.7 J/K/mol
503.15 K	139.1 J/K/mol and 139.1 J/K/mol
508.15 K	139.5 J/K/mol and 139.5 J/K/mol
513.15 K	139.9 J/K/mol and 140 J/K/mol
518.15 K	140.3 J/K/mol and 140.3 J/K/mol
523.15 K	140.7 J/K/mol and 140.7 J/K/mol
528.15 K	141 J/K/mol and 141.1 J/K/mol
533.15 K	141.3 J/K/mol and 141.5 J/K/mol
538.15 K	141.6 J/K/mol and 141.9 J/K/mol
543.15 K	142 J/K/mol and 142.2 J/K/mol
548.15 K	142.4 J/K/mol and 142.6 J/K/mol
553.15 K	142.7 J/K/mol and 142.9 J/K/mol
558.15 K	143 J/K/mol and 143.2 J/K/mol
563.15 K	143.4 J/K/mol and 143.6 J/K/mol
568.15 K	143.7 J/K/mol and 143.9 J/K/mol
573.15 K	143.9 J/K/mol and 144.2 J/K/mol
578.15 K	144.3 J/K/mol and 144.5 J/K/mol
583.15 K	144.6 J/K/mol and 144.8 J/K/mol
588.15 K	144.8 J/K/mol and 145.1 J/K/mol
593.15 K	145.1 J/K/mol and 145.4 J/K/mol
598.15 K	145.3 J/K/mol and 145.7 J/K/mol
603.15 K	145.6 J/K/mol and 145.9 J/K/mol
608.15 K	145.9 J/K/mol and 146.2 J/K/mol
613.15 K	146.1 J/K/mol and 146.5 J/K/mol
618.15 K	146.4 J/K/mol and 146.8 J/K/mol
623.15 K	146.7 J/K/mol and 147 J/K/mol
628.15 K	147 J/K/mol and 147.3 J/K/mol
633.15 K	147.3 J/K/mol and 147.5 J/K/mol
638.15 K	147.5 J/K/mol and 147.8 J/K/mol
643.15 K	147.8 J/K/mol and 148 J/K/mol
648.15 K	148 J/K/mol and 148.2 J/K/mol
653.15 K	148.2 J/K/mol and 148.5 J/K/mol
658.15 K	148.5 J/K/mol and 148.7 J/K/mol
663.15 K	148.8 J/K/mol and 148.9 J/K/mol
668.15 K	149.1 J/K/mol and 149.1 J/K/mol
673.15 K	149.3 J/K/mol and 149.3 J/K/mol
678.15 K	149.6 J/K/mol and 149.6 J/K/mol
683.15 K	149.9 J/K/mol and 149.8 J/K/mol
688.15 K	150.1 J/K/mol and 150 J/K/mol
693.15 K	150.4 J/K/mol and 150.2 J/K/mol
698.15 K	150.7 J/K/mol and 150.4 J/K/mol
703.15 K	150.9 J/K/mol and 150.6 J/K/mol
708.15 K	151.1 J/K/mol and 150.8 J/K/mol
713.15 K	151.4 J/K/mol and 151 J/K/mol
718.15 K	151.6 J/K/mol and 151.1 J/K/mol
723.15 K	151.8 J/K/mol and 151.3 J/K/mol
728.15 K	152 J/K/mol and 151.5 J/K/mol
733.15 K	152.1 J/K/mol and 151.7 J/K/mol
738.15 K	152.3 J/K/mol and 151.9 J/K/mol
743.15 K	152.5 J/K/mol and 152 J/K/mol
748.15 K	152.7 J/K/mol and 152.2 J/K/mol
753.15 K	152.9 J/K/mol and 152.4 J/K/mol
758.15 K	152.9 J/K/mol and 152.5 J/K/mol
763.15 K	153.1 J/K/mol and 152.7 J/K/mol
768.15 K	153.3 J/K/mol and 152.9 J/K/mol
773.15 K	153.4 J/K/mol and 153 J/K/mol
778.15 K	153.4 J/K/mol and 153.2 J/K/mol
783.15 K	153.6 J/K/mol and 153.3 J/K/mol
788.15 K	153.5 J/K/mol
793.15 K	153.7 J/K/mol and 153.6 J/K/mol
798.15 K	153.8 J/K/mol
803.15 K	154 J/K/mol and 153.9 J/K/mol
808.15 K	154.1 J/K/mol
813.15 K	154.2 J/K/mol
818.15 K	154.3 J/K/mol and 154.4 J/K/mol
823.15 K	154.4 J/K/mol and 154.5 J/K/mol
828.15 K	154.5 J/K/mol and 154.6 J/K/mol
833.15 K	154.5 J/K/mol and 154.8 J/K/mol
838.15 K	154.6 J/K/mol and 154.9 J/K/mol
843.15 K	154.8 J/K/mol and 155 J/K/mol
848.15 K	154.9 J/K/mol and 155.2 J/K/mol
853.15 K	154.9 J/K/mol and 155.3 J/K/mol
858.15 K	155 J/K/mol and 155.4 J/K/mol
863.15 K	155.1 J/K/mol and 155.6 J/K/mol
868.15 K	155.2 J/K/mol and 155.7 J/K/mol
